From patent US12258424B2, “Polypeptides and compositions comprising the same” (priority 2020, dated 2025)
Residues, ends and D or L forms follow the SMILES beside them.

Columns and labels:
[1] = Proteolytic stability in 50% human serum (LC-MS); format: in vitro ADME
Procedure: Half-life in 50% human serum. Proteolytic stability of the peptides was investigated using LC-MS. Solutions of the anti-PD-L1 peptides were incubated with 50% human serum at […], aliquots were taken at specific time points for processing and subsequent LC-MS analysis.

PD1/PD-L1 = PD1/PD-L1 (Homo sapiens, UniProt Q9NZQ7); experiment: IC50 and blocking efficiency against PD1/PD-L1 (Table 5); format: binding
PD1/PD-L1, sequence (Q9NZQ7 19-238 limits assumed): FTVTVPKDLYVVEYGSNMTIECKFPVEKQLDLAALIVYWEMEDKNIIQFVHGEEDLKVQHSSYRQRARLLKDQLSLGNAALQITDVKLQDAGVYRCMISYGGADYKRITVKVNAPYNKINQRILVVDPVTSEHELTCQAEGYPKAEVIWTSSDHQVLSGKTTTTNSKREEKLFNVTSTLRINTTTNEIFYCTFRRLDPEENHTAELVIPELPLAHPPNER
Procedure: (§1) Blocking efficiency at 10 μM/IC50 against human and mouse PD1/PD-L1 (ELISA). […] 100 ng of recombinant human PD-L1 protein was coated in 96-well plates at 4° C. for 16 h with shaking over an orbital shaker. Unbound protein was removed by washing twice with PBS (pH 7.2-7.4), 2% BSA was added for 1.5 h at 37° C. to block the plate. Specific concentrations of the peptides were dispensed into the appropriate wells and incubated for 2 h at 37° C. […] This was followed by the addition of streptavidin-HRP and chromogenic substrate (R & D systems). The color reaction was terminated with 2N H2SO4, absorbance was recorded at OD450 and referenced to OD540.

hPD-L1 [2] = molecular target: T1, hPD-L1 (Homo sapiens, UniProt Q9NZQ7); experiment: PD-1/PD-L1 inhibitor screening ELISA, human proteins; format: binding; set-up: purchased Acro Biosystems EP-101
T1 sequence (Q9NZQ7 19-238 limits assumed): as above
Procedure: as §1

DU145 cancer cell = format: cell-based, human; settings: for IC50: 2 h; for Blocking Efficiency (%): DU-145 cancer cells
Procedure: (§2) Ninety-six-well plates were coated with 100 ng of PD-L1 protein (G&P Biosciences, human PD-L1 ECD, cat #FCL0784B. mouse PD-L1, cat #FCL3502B) and later blocked with 2% BSA for 2 hours at room temperature. Various concentrations of peptides were loaded into the wells and incubated for 1 hour at room temperature. […] Streptavidin-HRP (R & D systems) and chromogenic substrate were added into the wells. OD450 was then recorded and referenced to OD540.
The blocking efficiency of the anti-PD-L1 peptides at 10 μM (FIG. 2c). […] The IC50 of each peptide was also determined using recombinant human PD-L1 protein and DU-145 cancer cells.

[3] = system: CT26 tumor-bearing Balb/C mice; experiment: Survival of CT26 tumor-bearing Balb/C mice; format: in vivo, mouse
Source text: (§3) Animal Study. The animal protocol was approved by the University of Missouri-Kansas City, Institutional Animal Care and Use Committee (IACUC). Five-week old male and female Balb/c mice were purchased from Charles Rivers Laboratories (Wilmington, Mass.) and housed in a temperature and humidity controlled room on a 12-hour light-dark cycle. Approximately 5×10^5 CT26 cells were subcutaneously injected into the right flank. The mice were randomly divided into five different groups (10 mice/group, 50% female, 50% male). The mice were intraperitoneally injected with 2 mg/kg peptide daily when the tumor size reached 50-100 mm^3. The anti-mouse PD-L1 antibody (10F.9G2, BioXcell) was administrated as a positive control at a dose of 10 mg/kg every two days. The tumor size was assessed with a caliper and calculated with the formula 0.5×length×width^2. ELISA kits of PD-L1 (Cat #DY1019-05), IFNγ (Cat #DY485-05), and IL-6 (Cat #DY406-05) were used to measure the expressions of PD-L1, IFNγ, and IL-6, respectively, in tumors as per the company's instructions (R & D Systems, Minneapolis, MN).
In this Example, mice were intraperitoneally injected with the CLP002 (SEQ ID NO:2) and CLP003 (SEQ ID NO:3) peptides daily or the anti-mouse PD-L1 antibody every other day from day 4 to day 17 (see survival curves in FIG. 7a). Specifically, CT26 tumor-bearing Balb/C mice (n=10, 5 male and 5 female) were intraperitoneally injected with the anti-PD-L1 peptides (2 mg/Kg) daily and the anti-mouse PD-L1 antibody (10 mg/Kg) every other day from day 4 to day 17. GraphPad Prism 7 software (San Diego, Calif.) was used for statistical analysis. Comparison of two survival curves were conducted using the Gehan-Breslow-Wilcoxon test. […] By contrast, only 20% of the mice in the CLP002 (SEQ ID NO:2) group were dead by day 17.

[4] = system: IFNγ, PD-L1 and IL-6 in CT26 tumors; experiment: ELISA of IFNγ, PD-L1 and IL-6 in harvested CT26 tumors; format: in vivo, mouse
Source text: as §3

[5] = system: CD8+ T cells in CT26 tumor tissues; experiment: IHC staining of CD8+ T cells in CT26 tumor tissues; format: in vivo, mouse
Procedure: Immunohistochemistry (IHC) Staining. Tumor tissues were fixed in 10% formalin, embedded in paraffin, sectioned, and mounted on glass slides by Truman Medical Centers Anatomic Pathology Core (Kansas City, MO). The slides were heated in Tris buffer (pH 9.0) for 45 min to recover antigen. After deparaffinization and rehydration, the sections were stained with the anti-mouse CD8 alpha antibody (Abcam, ab209775) overnight at 4° C. The slides were incubated with a biotinylated goat anti-rabbit secondary antibody, followed by the DAB chromogen mixture. Four sections (2 male and 2 female) were imaged in each group. For each section, 3 regions were randomly selected for imaging.

hPD-L1 [6] = molecular target: T1, hPD-L1; experiment: Blockade of the PD-1/PD-L1 interaction, plate coated with human PD-L1 protein; format: binding; set-up: PD-L1 protein (G&P Biosciences, human PD-L1 ECD, cat #FCL0784B); purchased G&P Biosciences FCL0784B (PD-L1)
Procedure: as §2

4T1 cancer cell = format: cell-based, mouse; settings: for Blocking Efficiency (%): 4T1 cancer cell; for IC50: 2 h
[7] = molecular target: T2, recombinant human PD-L1 ECD protein (Homo sapiens, UniProt Q9NZQ7); experiment: SPR binding kinetics and affinity to immobilized human PD-L1; settings: for kon: read-out: Ka
T2 construct: against the recombinant human PD-L1 ECD protein were evaluated using SPR; purchased G&P Biosciences FCL0784B
T2 sequence (Q9NZQ7 19-238 limits assumed): as above
Procedure: In such aspects, the equilibrium dissociate constant KD value against recombinant human PD-L1 can be determined according to an KD to PD-L1 SPR Assay. The KD to PD-L1 SPR Assay can include the use of Surface Plasmon Resonance (SPR), such as the B14500, Biosensing Instrument, and can include the following procedures. The PD-L1 protein can be diluted to 10 μg/mL with sodium acetate buffer (pH 5.0, GE Healthcare, PA) and covalently coated onto a CM5 sensor chip (CM Dextran Sensor Chip, Biosensing Instrument) using the standard Amine Coupling Kit (GE Healthcare, PA). Approximately 6500 RU of PD-L1 protein are immobilized onto the chip. A second channel is used as a reference. HBS-EP+ buffer (GE Healthcare) can be employed at a flow rate of 60 μL/min. A series of concentrations of each peptide (15, 30, 60, 125, 250, 500, 1000, 5000 and 10,000 nM) is prepared in HBS-EP+ running buffer to obtain the equilibrium dissociation constant (KD) values of the peptides. The CM5 sensor chip can be regenerated with 10 mM NaOH for 20 s. The results can be analyzed using the software of Bi data analysis software.
Evaluation of Binding Kinetics and Affinity By Surface Plasmon Resonance (SPR). Binding affinities of the PD-L1 specific peptides for human PD-L1 protein were determined by SPR (B14500, Biosensing Instrument). PD-L1 protein was diluted to 10 μg/mL with sodium acetate buffer (pH 5.0, GE Healthcare, PA) and covalently coated onto a CM5 sensor chip (CM Dextran Sensor Chip, Biosensing Instrument) using the standard Amine Coupling Kit (GE Healthcare, PA). Approximately 6500 RU of PD-L1 protein were immobilized onto the chip. A second channel was used as a reference. HBS-EP+ buffer (GE Healthcare) was employed at a flow rate of 60 μL/min. A series of concentrations of each peptide (15, 30, 60, 125, 250, 500, 1000, 5000 and 10,000 nM) were prepared in HBS-EP+ running buffer to obtain the equilibrium dissociation constant (KD) values of the peptides. The CM5 sensor chip was regenerated with 10 mM NaOH for 20 seconds. The results were analyzed using the software of Bi data analysis software. Binding affinities of the anti-PD-L1 peptides to BSA was also assessed following the procedure for human PD-L1.

[8] = system: CT26 colorectal tumor-bearing mouse model; experiment: Anti-tumor activity in CT26 tumor-bearing Balb/C mice; format: in vivo
Source text: as §3
The anti-mouse PD-L1 antibody (BioXcell, 10F.9G2) was administered intraperitoneally every other day at 10 mg/kg. […] In general, CLP002 (SEQ ID NO:2) exerted a better tumor inhibitory effect than CLP003 (SEQ ID NO:3), which was similar to the antibody. […] In FIG. 6e the weight of the tumors harvested at day 14 is shown. The results were represented as the mean±SD (n=10). It is noteworthy that the peptides were screened against the human PD-L1 protein, which, in fact, would compromise the anti-tumor activity of the peptides in a mouse model.

[9] = molecular target: human PD-L1/CD80 interaction (Homo sapiens, UniProt Q9NZQ7); experiment: Blockade of the CD80/PD-L1 interaction; format: binding; settings: at 10 μM, FIG. 8a
human PD-L1/CD80 interaction, sequence (Q9NZQ7 19-238 limits assumed): as above

mPD-L1 = mPD-L1 (Mus musculus, UniProt Q9EP73); experiment: Blockade of the mouse PD-1/PD-L1 interaction, mouse PD-L1 protein; format: binding; set-up: purchased G&P Biosciences FCL3502B (PD-L1); settings: mouse PD-L1 protein
mPD-L1, sequence (Q9EP73 19-239 limits assumed): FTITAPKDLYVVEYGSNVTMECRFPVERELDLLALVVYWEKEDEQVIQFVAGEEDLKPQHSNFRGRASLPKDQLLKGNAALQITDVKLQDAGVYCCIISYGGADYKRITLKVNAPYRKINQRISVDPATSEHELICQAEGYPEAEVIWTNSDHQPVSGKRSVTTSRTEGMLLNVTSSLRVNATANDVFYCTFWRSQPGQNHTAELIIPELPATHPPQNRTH
Procedure: as §2

SMILES: C[C@@H](O)[C@H](NC(=O)[C@H](Cc1ccc(O)cc1)NC(=O)[C@H](Cc1ccc(O)cc1)NC(=O)[C@H](CO)NC(=O)[C@H](CCCNC(=N)N)NC(=O)[C@H](Cc1c[nH]cn1)NC(=O)[C@@H](N)Cc1c[nH]c2ccccc12)C(=O)N[C@@H](Cc1c[nH]c2ccccc12)C(=O)N[C@@H](CC(N)=O)C(=O)O [CLP2TR3] (H-WHRSYYTWN-OH; N-terminus and C-terminus assumed)
- half-life [1]: 15 min
- % Blocking efficiency at 10 μM (PD1/PD-L1): 80%
- % Blocking efficiency at 10 μM (ELISA) hPD-L1 (hPD-L1 [2]): 80%

SMILES: CC(C)C[C@H](NC(=O)[C@H](Cc1c[nH]c2ccccc12)NC(=O)[C@H](CCCNC(=N)N)NC(=O)[C@H](Cc1c[nH]c2ccccc12)NC(=O)[C@H](CC(N)=O)NC(=O)[C@H](Cc1ccc(O)cc1)NC(=O)[C@H](CO)NC(=O)[C@H](Cc1ccccc1)NC(=O)[C@H](Cc1c[nH]cn1)NC(=O)[C@@H](N)Cc1c[nH]c2ccccc12)C(=O)N1CCC[C@H]1C(=O)N1CCC[C@H]1C(=O)O [CLP003] (H-WHFSYNWRWLPP-OH; N-terminus and C-terminus assumed)
- IC50 (DU145 cancer cell): 3050 nM
- Blocking Efficiency (%) (DU145 cancer cell): 56%
- Tumor growth in the survival study ([3]; Example 7, individual growth curves): other mice experienced a rapid tumor progression
- Mice died on day 17 (in words) ([3]; n=10): only one mouse died on day 17
- Survival of tumor-bearing mice ([3]; treatment from day 4 to day 17): modestly improved the survival
- IL-6 expression in tumor tissues [4]: decreased expression of IL-6
- Density of CD8+ T cells in tumor tissues [5]: significantly increased
- IC50 (hPD-L1 [6]; plate coated with human PD-L1 protein): 2220 nM
- Blocking Efficiency (%) (4T1 cancer cell): 50%
- IC50 (4T1 cancer cell): 1000 nM
- Kd [7]: 117 nM
- kon [7]: 22600 M⁻¹ s⁻¹
- Tumor growth ([8]; peptides 2 mg/kg i.p. daily, antibody 10 mg/kg i.p. every other day): effectively suppressed tumor growth
- Tumor weights at day 14 ([8]; versus saline group): significantly smaller than the saline group

SMILES: CC(C)C[C@H](NC(=O)[C@@H](NC(=O)[C@@H]1CCCN1C(=O)[C@H](CC(C)C)NC(=O)[C@H](CO)NC(=O)[C@@H]1CCCN1C(=O)[C@H](CC(=O)O)NC(=O)[C@H](Cc1c[nH]cn1)NC(=O)[C@H](Cc1ccc(O)cc1)NC(=O)[C@@H](N)CC(=O)O)[C@@H](C)O)C(=O)N[C@@H](CCCNC(=N)N)C(=O)N[C@@H](CCCCN)C(=O)O [CLP004] (H-DYHDPSLPTLRK-OH; N-terminus and C-terminus assumed)
- IC50 (DU145 cancer cell): 200 nM
- Blocking Efficiency (%) (DU145 cancer cell): 60%
- Blocking efficiency against CD80/PD-L1 interaction [9]: ~27%
- Blocking Efficiency (%) (hPD-L1 [6]; human PD-L1 protein): 52%
- Blocking Efficiency (%) (4T1 cancer cell): 34%
- IC50 (4T1 cancer cell): 730 nM
- kon [7]: 5140 M⁻¹ s⁻¹
- Blocking Efficiency (%) (mPD-L1): 48%
- IC50 (mPD-L1): 1910 nM
